Measured values published in patent US10669268B2, “Bicyclic derivatives” (Hoffmann-La Roche Inc., priority 2012, dated 2020).

Target: ATX (human His-tagged) (Homo sapiens (Human), UniProt Q13822)
Test: Human ATX enzyme inhibition assay (fluorescence quenching, MR121 substrate)
Type: biochemical
Conditions: 30 nM ATX, 1 μM MR121 substrate, 30° C., pH 8.0
Method: Human ATX Enzyme Inhibition Assay
Assay working solutions were made as follows:
Assay buffer (50 mM Tris-HCl, 140 mM NaCl, 5 mM KCl, 1 mM CaCl2, 1 mM MgCl2, 0.01% Triton-X-100, pH 8.0;
MR121 substrate solution: MR121 substrate stock solution (800 μM MR121 substrate in DMSO), diluted to 2-5× final concentration in assay buffer.
10 μL of MR121 substrate solution was added (1 μM final concentration), mixed 30 times and then incubated for 15 minutes at 30° C.

Structure (SMILES)	IC50
O=C(OCc1cc(Cl)cc(Cl)c1)N1CC[C@@H]2CN(C(=O)c3ccc4[nH]nnc4c3)C[C@H]2C1 (single isomer, unassigned) [Example 11B, trans-3,5-dichlorobenzyl 2-(1H-benzo[d][1,2,3]triazole-5-carbonyl)-hexahydro-1H-pyrrolo[3,4-c]pyridine-5(6H)-carboxylate]	9 nM
O=C(/C=C/c1ccc(OC(F)(F)F)cc1)N1C[C@H]2CCN(C(=O)c3ccc4[nH]nnc4c3)C[C@@H]2C1 (single isomer, unassigned) [Example 15.25]	44 nM
O=C(/C=C/c1ccc(OC(F)(F)F)cc1)N1C[C@@H]2CN(C(=O)c3ccc4[nH]nnc4c3)CC[C@H]2C1 (single isomer, unassigned) [Example 15.26]	8 nM
O=C(/C=C/c1ccc(OC(F)F)cc1)N1C[C@H]2CCN(C(=O)c3ccc4[nH]nnc4c3)C[C@@H]2C1 (single isomer, unassigned) [Example 15.32]	19 nM
N#Cc1ccc(/C=C/C(=O)N2C[C@H]3CCN(C(=O)c4ccc5[nH]nnc5c4)C[C@@H]3C2)cc1 (single isomer, unassigned) [Example 15.33]	328 nM
O=C1NC2CCC(C(=O)N3CC4CCN(C(=O)/C=C/c5ccc(OC(F)(F)F)cc5)CCC4C3)CC2O1 (stereo in doubt) [Example 1.16, (3aSR,6SR,7aSR)-6-{(3aR,8aS)-6-[(E)-3-(4-trifluoromethoxy-phenyl)-acryloyl]-octahydro-pyrrolo[3,4-d]azepine-2-carbonyl}-hexahydro-benzooxazol-2-one]	382 nM
O=C(c1ccc(-c2ccc(Cl)cc2)cc1)N1C[C@H]2CN(C(=O)c3ccc4[nH]nnc4c3)C[C@@H]2C1 (stereo in doubt) [Example 19.13, (1H-benzotriazol-5-yl)-[(3aS,6aS)-5-(4′-chloro-biphenyl-4-carbonyl)-hexahydro-pyrrolo[3,4-c]pyrrol-2-yl]-methanone]	10 nM
O=C(/C=C/c1ccc(OC(F)(F)F)cc1)N1CC[C@@H]2CN(C(=O)C3CCc4[nH]nnc4C3)C[C@@H]2CC1 (stereo partly drawn) [Example 1, (E)-1-[(3aS,8aR)-2-(4,5,6,7-Tetrahydro-1H-benzotriazole-5-carbonyl)-octahydro-pyrrolo[3,4-d]azepin-6-yl]-3-(4-trifluoromethoxy-phenyl)-prop-2-en-1-one]	8 nM
O=C(CCc1cc(Cl)cc(Cl)c1)N1C[C@@H]2CN(C(=O)c3ccc4[nH]nnc4c3)C[C@@H]2C1 [Example 1.01, 1-((3aR,6aS)-5-(1H-benzo[d][1,2,3]triazole-5-carbonyl)hexahydropyrrolo[3,4-c]pyrrol-2(1H)-yl)-3-(3,5-dichlorophenyl)propan-1-one]	35 nM
O=C(CCc1cc(Cl)cc(Cl)c1)N1C[C@@H]2CN(C(=O)c3ccc4[nH]c(=O)oc4c3)C[C@@H]2C1 [Example 1.02, 6-((3aR,6aS)-5-(3-(3,5-dichlorophenyl)propanoyl)octahydropyrrolo[3,4-c]pyrrole-2-carbonyl)benzo[d]oxazol-2(3H)-one]	77 nM
O=C(OCc1cc(Cl)cc(Cl)c1)N1C[C@@H]2CN(C(=O)c3ccc4[nH]nnc4c3)C[C@@H]2C1 [Example 1.03, (3aR,6aS)-3,5-dichlorobenzyl 5-(1H-benzo[d][1,2,3]triazole-5-carbonyl)hexahydropyrrolo[3,4-c]pyrrole-2(1H)-carboxylate]	25 nM
O=C(OCc1cc(Cl)cc(Cl)c1)N1C[C@@H]2CN(C(=O)c3cc4c(cn3)[nH]c3ccccc34)C[C@@H]2C1 [Example 1.04, (3aR,6aS)-3,5-dichlorobenzyl 5-(9H-pyrido[3,4-b]indole-3-carbonyl)hexahydropyrrolo[3,4-c]pyrrole-2(1H)-carboxylate]	127 nM
O=C(OCc1cc(Cl)cc(Cl)c1)N1C[C@@H]2CN(C(=O)c3ccc4[nH]ccc4c3)C[C@@H]2C1 [Example 1.05, (3aR,6aS)-3,5-dichlorobenzyl 5-(1H-indole-5-carbonyl)hexahydropyrrolo[3,4-c]pyrrole-2(1H)-carboxylate]	90 nM
O=C(OCc1cc(Cl)cc(Cl)c1)N1C[C@@H]2CN(C(=O)c3ccc4[nH]c5ccccc5c4c3)C[C@@H]2C1 [Example 1.06, (3aR,6aS)-3,5-dichlorobenzyl 5-(9H-carbazole-3-carbonyl)hexahydropyrrolo[3,4-c]pyrrole-2(1H)-carboxylate]	255 nM
O=C(OCc1cc(Cl)cc(Cl)c1)N1C[C@@H]2CN(C(=O)c3ccc4[nH]ncc4c3)C[C@@H]2C1 [Example 1.07, (3aR,6aS)-3,5-dichlorobenzyl 5-(1H-indazole-5-carbonyl)hexahydropyrrolo[3,4-c]pyrrole-2(1H)-carboxylate]	1030 nM
O=C(OCc1cc(Cl)cc(Cl)c1)N1C[C@@H]2CN(C(=O)c3ccc4[nH]cnc4c3)C[C@@H]2C1 [Example 1.08, (3aR,6aS)-3,5-dichlorobenzyl 5-(1H-benzo[d]imidazole-5-carbonyl)hexahydropyrrolo[3,4-c]pyrrole-2(1H)-carboxylate]	503 nM
O=C(OCc1cc(Cl)cc(Cl)c1)N1CC[C@@H]2CN(C(=O)c3ccc4[nH]nnc4c3)C[C@@H]2CC1 [Example 1.11, (3aR,8aS)-3,5-dichlorobenzyl 2-(1H-benzo[d][1,2,3]triazole-5-carbonyl)octahydropyrrolo[3,4-d]azepine-6(7H)-carboxylate]	4 nM
O=C(c1ccc2[nH]nnc2c1)N1C[C@@H]2CN(S(=O)(=O)CCc3cccc(Cl)c3)C[C@@H]2C1 [Example 1.12, (1H-benzotriazol-5-yl)-{(3aS,6aR)-5-[2-(3-chloro-phenyl)-ethanesulfonyl]-hexahydro-pyrrolo[3,4-c]pyrrol-2-yl}-methanone]	9260 nM
O=C(OCc1cc(Cl)cc(Cl)c1)N1C[C@@H]2CN(C(=O)C3CCc4[nH]nnc4C3)C[C@@H]2C1 (stereo partly drawn) [Example 1.13, (3aR,6aS)-3,5-dichlorobenzyl 5-(4,5,6,7-tetrahydro-1H-benzo[d][1,2,3]triazole-5-carbonyl)hexahydropyrrolo[3,4-c]pyrrole-2(1H)-carboxylate]	226 nM
CC(C)(Cc1cccc(Cl)c1)C(=O)N1CC[C@@H]2CN(C(=O)c3ccc4[nH]nnc4c3)C[C@@H]2CC1 [Example 1.14, 1-((3aR,8aS)-2-(1H-benzo[d][1,2,3]triazole-5-carbonyl)octahydropyrrolo[3,4-d]azepin-6(7H)-yl)-3-(3-chlorophenyl)-2,2-dimethylpropan-1-one]	810 nM
O=C(/C=C/c1ccc(OC(F)(F)F)c(F)c1)N1CC[C@@H]2CN(C(=O)c3ccc4[nH]nnc4c3)C[C@@H]2CC1 [Example 1.15, (E)-1-((3aR,8aS)-2-(1H-benzo[d][1,2,3]triazole-5-carbonyl)octahydropyrrolo[3,4-d]azepin-6(7H)-yl)-3-(3-fluoro-4-(trifluoromethoxy)phenyl)prop-2-en-1-one]	1 nM
O=C(/C=C/c1ccc(OC(F)(F)F)cc1)N1CC[C@@H]2CN(C(=O)c3ccc4nonc4c3)C[C@@H]2CC1 [Example 1.17, (E)-1-[(3aS,8aR)-2-(benzo[c][1,2,5]oxadiazole-5-carbonyl)-octahydro-pyrrolo[3,4-d]azepin-6-yl]-3-(4-trifluoromethoxy-phenyl)-prop-2-en-1-one]	651 nM
Cc1cc(OC(F)(F)F)ccc1/C=C/C(=O)N1CC[C@@H]2CN(C(=O)c3ccc4[nH]nnc4c3)C[C@@H]2CC1 [Example 1.18, (E)-1-((3aR,8aS)-2-(1H-benzo[d][1,2,3]triazole-5-carbonyl)octahydropyrrolo[3,4-d]azepin-6(7H)-yl)-3-(2-methyl-4-(trifluoromethoxy)phenyl)prop-2-en-1-one]	10 nM
COc1ccc(/C=C/C(=O)N2CC[C@@H]3CN(C(=O)c4ccc5[nH]nnc5c4)C[C@@H]3CC2)cc1F [Example 1.19, (E)-1-((3aR,8aS)-2-(1H-benzo[d][1,2,3]triazole-5-carbonyl)octahydropyrrolo[3,4-d]azepin-6(7H)-yl)-3-(3-fluoro-4-methoxyphenyl)prop-2-en-1-one]	12 nM
O=C(/C=C/c1ccc(OC(F)(F)F)cc1)N1CC[C@@H]2CN(C(=O)[C@H]3CCc4[nH]nnc4C3)C[C@@H]2CC1 [Example 1.20, (E)-1-[(3aS,8aR)-2-((S)-4,5,6,7-tetrahydro-1H-benzotriazole-5-carbonyl)-octahydro-pyrrolo[3,4-d]azepin-6-yl]-3-(4-trifluoromethoxy-phenyl)-prop-2-en-1-one]	83 nM
O=C(/C=C/c1ccc(OC(F)(F)F)cc1)N1CC[C@@H]2CN(C(=O)[C@@H]3CCc4[nH]nnc4C3)C[C@@H]2CC1 [Example 1.21, (E)-1-[(3aS,8aR)-2-((R)-4,5,6,7-tetrahydro-1H-benzotriazole-5-carbonyl)-octahydro-pyrrolo[3,4-d]azepin-6-yl]-3-(4-trifluoromethoxy-phenyl)-prop-2-en-1-one]	5 nM
CC(C)c1ccccc1/C=C/C(=O)N1CC[C@@H]2CN(C(=O)c3ccc4[nH]nnc4c3)C[C@@H]2CC1 [Example 1.22, (E)-1-[(3aS,8aR)-2-(1H-benzotriazole-5-carbonyl)-octahydro-pyrrolo[3,4-d]azepin-6-yl]-3-(2-isopropyl-phenyl)-prop-2-en-1-one]	9 nM
O=C(/C=C/c1cc(Cl)cc(C(F)(F)F)c1)N1CC[C@@H]2CN(C(=O)c3ccc4[nH]nnc4c3)C[C@@H]2CC1 [Example 1.27, (E)-1-((3aR,8aS)-2-(1H-benzo[d][1,2,3]triazole-5-carbonyl)octahydropyrrolo[3,4-d]azepin-6(7H)-yl)-3-(3-chloro-5-(trifluoromethyl)phenyl)prop-2-en-1-one]	8 nM
